Experimental data taken from ChEMBL document CHEMBL3714748, “Compounds and compositions as ITPKB inhibitors” (2012).

Experiments:
Kinase = target: T1, Kinase (Mus musculus, UniProt B2RXC2); test: Inhibition of mouse ITPKb (640 to 942 residues) expressed in Escherichia coli HK100 assessed as reduction in IP3 phosphorylation incubated for 60 mins by kinase-Glo ATP depletion assay
T1 sequence (B2RXC2 whole entry): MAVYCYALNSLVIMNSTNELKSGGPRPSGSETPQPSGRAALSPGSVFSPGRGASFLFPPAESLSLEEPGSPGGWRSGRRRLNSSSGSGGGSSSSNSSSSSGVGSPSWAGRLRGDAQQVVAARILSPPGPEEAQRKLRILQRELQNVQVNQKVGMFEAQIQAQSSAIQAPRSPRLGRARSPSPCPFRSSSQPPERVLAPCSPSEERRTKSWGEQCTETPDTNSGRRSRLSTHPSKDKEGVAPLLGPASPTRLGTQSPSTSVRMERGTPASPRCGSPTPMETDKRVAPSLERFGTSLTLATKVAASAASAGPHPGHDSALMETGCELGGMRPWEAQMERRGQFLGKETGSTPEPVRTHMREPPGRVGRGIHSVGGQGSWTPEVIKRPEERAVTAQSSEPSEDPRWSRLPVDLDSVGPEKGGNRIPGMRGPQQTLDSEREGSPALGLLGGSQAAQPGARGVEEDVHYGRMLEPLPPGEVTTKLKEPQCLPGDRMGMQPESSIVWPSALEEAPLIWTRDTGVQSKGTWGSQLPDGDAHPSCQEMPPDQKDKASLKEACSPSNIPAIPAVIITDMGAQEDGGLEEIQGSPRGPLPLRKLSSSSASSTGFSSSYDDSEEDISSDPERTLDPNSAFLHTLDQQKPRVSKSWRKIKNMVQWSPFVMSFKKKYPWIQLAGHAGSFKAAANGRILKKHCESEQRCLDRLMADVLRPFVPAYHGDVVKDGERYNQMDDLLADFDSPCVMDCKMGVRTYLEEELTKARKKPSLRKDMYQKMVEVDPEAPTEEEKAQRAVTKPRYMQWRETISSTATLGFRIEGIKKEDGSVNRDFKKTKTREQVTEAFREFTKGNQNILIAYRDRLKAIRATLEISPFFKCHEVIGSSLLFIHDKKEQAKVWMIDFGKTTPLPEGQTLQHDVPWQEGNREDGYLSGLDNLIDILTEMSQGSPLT

[1] = target: T2, Inositol-trisphosphate 3-kinase B (Homo sapiens, UniProt P27987); test: Inhibition of ITPKb in human Jurkat cells assessed as reduction in conversion of IP3 to IP4 using [3H]-myo-inositol incubated for 5 mins by beta-RAM radio-HPLC method; type: cell-based
T2 sequence (P27987 whole entry): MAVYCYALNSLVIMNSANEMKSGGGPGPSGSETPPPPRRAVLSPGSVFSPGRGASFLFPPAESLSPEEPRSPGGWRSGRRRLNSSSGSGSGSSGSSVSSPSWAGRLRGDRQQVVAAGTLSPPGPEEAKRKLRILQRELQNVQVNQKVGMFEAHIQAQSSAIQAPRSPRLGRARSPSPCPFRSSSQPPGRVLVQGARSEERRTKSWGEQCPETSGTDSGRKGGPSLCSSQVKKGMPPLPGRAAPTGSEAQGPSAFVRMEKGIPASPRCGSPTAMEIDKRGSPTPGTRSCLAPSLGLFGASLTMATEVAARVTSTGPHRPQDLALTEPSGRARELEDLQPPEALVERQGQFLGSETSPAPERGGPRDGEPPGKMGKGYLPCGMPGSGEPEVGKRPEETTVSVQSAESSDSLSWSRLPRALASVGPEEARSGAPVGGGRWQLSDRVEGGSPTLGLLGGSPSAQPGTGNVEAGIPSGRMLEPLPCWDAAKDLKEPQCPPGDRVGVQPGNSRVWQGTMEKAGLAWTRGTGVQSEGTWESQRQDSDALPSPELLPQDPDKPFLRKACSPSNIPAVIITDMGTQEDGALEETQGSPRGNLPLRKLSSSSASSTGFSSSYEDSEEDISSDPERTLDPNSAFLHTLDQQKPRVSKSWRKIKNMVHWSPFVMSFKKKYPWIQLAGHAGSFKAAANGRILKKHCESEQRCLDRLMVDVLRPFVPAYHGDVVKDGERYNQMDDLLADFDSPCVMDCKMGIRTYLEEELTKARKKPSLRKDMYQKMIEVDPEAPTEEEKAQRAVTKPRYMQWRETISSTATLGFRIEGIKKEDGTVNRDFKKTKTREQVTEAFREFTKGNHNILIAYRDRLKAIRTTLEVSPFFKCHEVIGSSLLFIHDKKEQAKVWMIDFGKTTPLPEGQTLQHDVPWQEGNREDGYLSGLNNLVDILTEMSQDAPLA

| IC50 (Kinase) | IC50 [1] | Structure (SMILES) |
| --- | --- | --- |
| < 100 nM | < 500 nM | C[C@H]1CN(Cc2c[nH]nc2-c2ccc3c(c2)CNC(=O)O3)CCN1c1ccc(C(F)(F)F)cn1 |
| < 100 nM | < 500 nM | C[C@@H]1CN(Cc2c[nH]nc2-c2ccc3[nH]c(=O)oc3c2)CCN1c1ccc(C(F)(F)F)cn1 |
| < 100 nM | < 500 nM | C[C@@H]1CN(Cc2c[nH]nc2-c2ccc3oc(=O)[nH]c(=O)c3c2)CCN1c1ccc(C(F)(F)F)cn1 |
| < 100 nM | < 500 nM | O=C1NCc2cc(-c3n[nH]cc3CN3CCN(c4ccc(C(F)(F)F)cn4)C[C@H]3CF)ccc2O1 |
| < 100 nM | < 500 nM | C[C@@H]1CN(Cc2c[nH]nc2-c2ccc3c(c2)CNC(=O)O3)CCN1c1ccc(C(F)(F)F)cn1 |
| < 100 nM |  | O=C1NCc2cc(-c3n[nH]cc3CN3CCN(c4ccc(C(F)(F)F)cn4)CC3C(F)(F)F)ccc2O1 (stereo not drawn) |
| < 100 nM | < 500 nM | C[C@@H]1CN(Cc2c[nH]nc2-c2ccc3c(c2)C(C)(C)NC(=O)O3)CCN1c1ccc(C(F)(F)F)cn1 |
| < 100 nM | < 500 nM | C[C@@H]1CN(Cc2c[nH]nc2-c2ccc3c(c2)CNC(=O)O3)CCN1Cc1ccccc1F |
| < 100 nM | < 500 nM | O=C1NCc2cc(-c3n[nH]cc3CN3CCN(c4ccc(C(F)(F)F)cn4)C[C@H]3CO)ccc2O1 |
| < 100 nM | < 500 nM | C[C@H]1CN(Cc2c[nH]nc2-c2ccc3[nH]c(=O)oc3c2)CCN1c1ccc(C(F)(F)F)cn1 |
| < 100 nM | < 500 nM | C[C@@H]1CN(Cc2c[nH]nc2-c2ccc3c(c2)CNC(=O)O3)CCN1c1ccc(C#N)cn1 |
| < 100 nM | < 500 nM | C[C@@H]1CN(Cc2c[nH]nc2-c2ccc3c(c2)C(=O)NC(=O)C3)CCN1c1ccc(C(F)(F)F)cn1 |
| < 100 nM | < 500 nM | O=C1NCc2cc(-c3n[nH]cc3CN3CCN(c4ccc(C(F)(F)F)cn4)[C@H](C(F)(F)F)C3)ccc2O1 |
| < 100 nM | < 500 nM | C[C@@H]1CN(Cc2n[nH]nc2-c2ccc3c(c2)CNC(=O)O3)CCN1c1ccc(C(F)(F)F)cn1 |
| < 100 nM | < 500 nM | O=c1[nH]c(=O)c2cc(-c3n[nH]cc3CN3CCN(c4ccc(C(F)(F)F)cn4)CC3)ccc2o1 |
| < 100 nM | < 500 nM | C[C@@H]1CN(Cc2c[nH]nc2-c2ccc3c(c2)CNC(=O)O3)CCN1c1cc(C#N)ccn1 |
| < 100 nM | < 500 nM | C[C@@H]1CN(Cc2c[nH]nc2-c2ccc3c(c2)CNC(=O)O3)CCN1c1ccc(Cl)cc1 |
| < 100 nM | < 500 nM | O=C1NCc2cc(-c3n[nH]cc3CN3CCN(c4ccc(C(F)(F)F)cn4)[C@@H](C(F)(F)F)C3)ccc2O1 |
| < 100 nM | < 500 nM | C[C@@H]1CN(Cc2c[nH]nc2-c2ccc3c(c2)CNC(=O)C3)CCN1c1ccc(C(F)(F)F)cn1 |
| < 100 nM | < 500 nM | Cc1cccc(N2CCN(Cc3c[nH]nc3-c3ccc4oc(=O)[nH]c(=O)c4c3)CC2)c1C |

| IC50 (Kinase) | IC50 [1] | Structure (SMILES) |
| --- | --- | --- |
| < 100 nM | < 500 nM | O=C1NCc2cc(-c3n[nH]cc3CN3CCN(c4ccc(C(F)(F)F)cn4)C4(CC4)C3)ccc2O1 |
| < 100 nM | < 500 nM | C[C@@H]1CN(Cc2c[nH]nc2-c2ccc3c(c2)CNC(=O)O3)CCN1c1cccc(C(F)(F)F)c1 |
| < 100 nM | < 500 nM | C[C@@H]1CN(Cc2c[nH]nc2-c2ccc3c(c2)CNC(=O)O3)CCN1c1ccc(Cl)cn1 |
| < 100 nM | < 500 nM | O=C1NCc2cc(-c3n[nH]cc3CN3CCN(c4ccc(C(F)(F)F)cn4)C(C(F)(F)F)C3)ccc2O1 (stereo not drawn) |
| < 100 nM | < 500 nM | Cc1ccc(N2CCN(Cc3c[nH]nc3-c3ccc4c(c3)CNC(=O)O4)C[C@H]2C)nc1 |
| < 100 nM | < 500 nM | O=C1Cc2ccc(-c3n[nH]cc3CN3CCCN(c4ccc(C(F)(F)F)cn4)CC3)cc2CN1 |
| < 100 nM | < 500 nM | C[C@@H]1CN(Cc2c[nH]nc2-c2ccc3c(c2)CNC(=O)O3)CCN1c1ccc(C(F)(F)F)cc1 |
| < 100 nM | < 500 nM | O=C1NCc2cc(-c3n[nH]cc3CN3CCN(c4ccc(C(F)(F)F)cn4)CC3)ccc2O1 |
| < 100 nM | < 500 nM | O=C1NCc2cc(-c3n[nH]cc3CN3CCN(c4ccc(C(F)(F)F)cn4)C[C@H]3C(=O)O)ccc2O1 |
| < 100 nM | < 500 nM | Cc1cccc(N2CCN(Cc3c[nH]nc3-c3ccc4[nH]c(=O)oc4c3)CC2)c1C |
| < 100 nM | < 500 nM | C[C@H]1CN(Cc2c[nH]nc2-c2ccc3oc(=O)[nH]c(=O)c3c2)CCN1c1ccc(C(F)(F)F)cn1 |
| < 100 nM | < 500 nM | C[C@@H]1CN(Cc2c[nH]nc2-c2ccc3oc(=O)[nH]c3c2)CCN1c1ccc(C(F)(F)F)cn1 |
| < 100 nM | < 500 nM | O=C1NCc2cc(-c3n[nH]cc3CN3CCN(c4ccc(C(F)(F)F)cn4)[C@H](CF)C3)ccc2O1 |
| < 100 nM | < 500 nM | O=C1NCc2cc(-c3n[nH]cc3CN3CCCN(c4ccc(C(F)(F)F)cn4)CC3)ccc2O1 |
| < 100 nM | < 500 nM | O=C1NCc2cc(-c3n[nH]cc3CN3CCCN(c4ccc(C(F)(F)F)cn4)CC3)ccc2N1 |
| < 100 nM | < 500 nM | C[C@@H]1CN(Cc2c[nH]nc2-c2ccc3c(c2)CNC(=O)N3)CCN1c1ccc(C(F)(F)F)cn1 |
| < 100 nM | < 500 nM | C[C@@H]1CN(Cc2c[nH]nc2-c2ccc3c(c2)CNC(=O)O3)CCN1c1nccc(C(F)(F)F)n1 |
| < 100 nM | < 500 nM | C[C@@H]1CN(Cc2c[nH]nc2-c2ccc3c(c2)CNC(=O)O3)CCN1C1CCCCC1 |
| < 100 nM | < 500 nM | O=C1NCc2cc(-c3n[nH]cc3CN3CCN(c4ccc(C(F)(F)F)cn4)[C@H](CO)C3)ccc2O1 |

| Structure (SMILES) | IC50 (Kinase) | IC50 [1] |
| --- | --- | --- |
| O=c1[nH]c(=O)c2cc(-c3n[nH]cc3CN3C4CCC3CN(c3ccc(C(F)(F)F)cn3)C4)ccc2o1 | < 100 nM | < 500 nM |
| O=C1NCc2cc(-c3n[nH]cc3CN3C4CCC3CN(c3ccc(C(F)(F)F)cn3)C4)ccc2O1 | < 100 nM | < 500 nM |
| O=C1NCc2cc(-c3n[nH]cc3CN3C4CC3CN(c3ccc(C(F)(F)F)cn3)C4)ccc2O1 | < 100 nM | < 500 nM |
